Test results: patent US20060183754A1, “Amide bridged piphenyl or biazaphenyl derivatives” (priority 2005, published 2006)
pIC50: −log10 of the molar value.

How the values were obtained:
[1] = target: T1, PPARδ (Homo sapiens, UniProt Q03181); assay: PPARδ radioligand binding assay (SPA, GST-PPARδ-LBD)
T1 construct: PPARδ (aa 139 to 442); made in house; host or cells: E. coli BL21 (pLysS)
T1 sequence (Q03181 139-441 limits assumed): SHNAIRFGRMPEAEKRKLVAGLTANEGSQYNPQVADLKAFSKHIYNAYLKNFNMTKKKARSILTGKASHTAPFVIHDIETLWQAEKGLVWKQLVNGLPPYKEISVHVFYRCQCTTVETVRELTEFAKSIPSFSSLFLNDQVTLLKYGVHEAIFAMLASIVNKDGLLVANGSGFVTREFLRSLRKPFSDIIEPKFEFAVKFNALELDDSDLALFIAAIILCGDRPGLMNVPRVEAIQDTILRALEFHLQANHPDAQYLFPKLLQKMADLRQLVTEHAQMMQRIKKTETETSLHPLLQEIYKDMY
Excerpt: (§1) Background information on the performed assays can be found in: Nichols J S et al. “Development of a scintillation proximity assay for peroxisome proliferator-activated receptor gamma ligand binding domain”, (1998) Anal. Biochem. 257: 112-119.
(§2) Full-length cDNA clones for humans PPARδ and PPARα and mouse PPARγ were obtained by RT-PCR from human adipose and mouse liver cRNA, respectively, cloned into plasmid vectors and verified by DNA sequencing. Bacterial and mammalian expression vectors were constructed to produce glutathione-s-transferase (GST) and Gal4 DNA binding domain proteins fused to the ligand binding domains (LBD) of PPARδ (aa 139 to 442), PPARγ (aa 174 to 476) and PPARα (aa 167 to 469). To accomplish this, the portions of the cloned sequences encoding the LBDs were amplified from the full-length clones by PCR and then subcloned into the plasmid vectors. Final clones were verified by DNA sequence analysis.
(§3) Induction, expression, and purification of GST-LBD fusion proteins were performed in E. coli strain BL21 (pLysS) cells by standard methods (Ref: Current Protocols in Molecular Biology, Wiley Press, edited by Ausubel et al.).
PPARδ receptor binding was assayed in HNM10 (50 mM Hepes, pH 7.4, 10 mM NaCl, 5 mM MgCl2, 0.15 mg/ml fatty acid-free BSA and 15 mM DTT). For each 96 well reaction a 500 ng equivalent of GST-PPARδ-LBD fusion protein and radioligand, e.g. 20000 dpm {2-methyl-4-[4-methyl-2-(4-trifluoromethyl-phenyl)-thiazol-5-yl-ditritiomethylsulfanyl]-phenoxy}-acetic acid, was bound to 10 μg SPA beads (PharmaciaAmersham) in a final volume of 50 μl by shaking. The resulting slurry was incubated for 1 h at RT and centrifuged for 2 min at 1300 g. […] Radioligand was added and the reaction incubated at RT for 1 h and scintillation proximity counting performed in the presence of test compounds was determined. All binding assays were performed in 96 well plates and the amount of bound ligand was measured on a Packard TopCount using OptiPlates (Packard). […]

[2] = target: T2, PPARα (Homo sapiens, UniProt Q07869); assay: PPARα radioligand binding assay (SPA, GST-PPARα-LBD)
T2 construct: PPARα (aa 167 to 469); made in house; host or cells: E. coli BL21 (pLysS)
T2 sequence (Q07869 167-468 limits assumed): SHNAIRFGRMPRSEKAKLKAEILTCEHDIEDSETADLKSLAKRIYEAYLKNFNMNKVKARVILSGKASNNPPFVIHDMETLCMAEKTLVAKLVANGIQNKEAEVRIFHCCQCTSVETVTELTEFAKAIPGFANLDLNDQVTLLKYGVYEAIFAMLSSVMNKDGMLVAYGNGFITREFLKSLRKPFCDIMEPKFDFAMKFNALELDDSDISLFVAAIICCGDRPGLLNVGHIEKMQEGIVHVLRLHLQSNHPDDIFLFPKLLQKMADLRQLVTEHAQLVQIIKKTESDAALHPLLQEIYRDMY
Excerpt: as §1, §2, §3
(§4) PPARα receptor binding was assayed in TKE50 (50 mM Tris-HCl, pH 8, 50 mM KCl, 2 mM EDTA, 0.1 mg/ml fatty acid-free BSA and 10 mM DTT). For each 96 well reaction an 140 ng equivalent of GST-PPARα-LBD fusion protein was bound to 10 μg SPA beads (PharmaciaAmersham) in a final volume of 50 μl by shaking. The resulting slurry was incubated for 1 h at RT and centrifuged for 2 min at 1300 g. The supernatant containing unbound protein was removed and the semidry pellet containing the receptor-coated beads was resolved in 50 μl of TKE. […] All binding assays were performed in 96 well plates and the amount of bound ligand measured on a Packard TopCount using OptiPlates (Packard). Nonspecific binding was determined in the presence of 10^−4 M unlabelled compound. […]

[3] = target: T3, PPARγ (Mus musculus, UniProt P37238); assay: PPARγ radioligand binding assay (SPA, GST-PPARγ-LBD)
T3 construct: PPARγ (aa 174 to 476); made in house; host or cells: E. coli BL21 (pLysS)
T3 sequence (P37238 204-505): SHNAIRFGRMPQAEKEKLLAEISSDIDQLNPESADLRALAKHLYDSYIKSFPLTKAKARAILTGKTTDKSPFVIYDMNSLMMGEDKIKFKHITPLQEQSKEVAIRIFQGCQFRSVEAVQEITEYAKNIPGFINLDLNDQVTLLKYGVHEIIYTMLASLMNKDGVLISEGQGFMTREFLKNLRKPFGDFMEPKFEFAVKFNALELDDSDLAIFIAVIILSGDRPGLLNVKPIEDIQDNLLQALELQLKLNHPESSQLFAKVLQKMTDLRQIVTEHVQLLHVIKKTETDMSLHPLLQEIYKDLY
Excerpt: as §1, §2, §3
as §4, with “PPARγ” for “PPARα”, “GST-PPARγ-LBD” for “GST-PPARα-LBD”, “ul” for “μl”

pIC50 [1] | pIC50 [2] | pIC50 [3] | Compound
6.24 | 6.38 | < 5.00 | Cc1cc(OC(C)C(=O)Nc2cccc(-c3ccc(C(F)(F)F)cc3)c2)ccc1OC(C)(C)C(=O)O (racemic) [Example 09, [rac]-2-Methyl-2-{2-methyl-4-[1-(4′-trifluoromethyl-biphenyl-3-ylcarbamoyl)-ethoxy)-phenoxy}-propionic acid]
6.03 | 7.62 | 5.97 | Cc1cc(OCCNC(=O)c2cnc(-c3ccc(C(F)(F)F)cc3)nc2C2CC2)ccc1OC(C)(C)C(=O)O [Example 20, 2-[4-(2-{[4-Cyclopropyl-2-(4-trifluoromethyl-phenyl)-pyrimidine-5-carbonyl]-amino}-ethoxy)-2-methyl-phenoxy]-2-methyl-propionic acid]
< 5.00 | 8.10 | < 5.00 | CC(C)(Oc1ccc(CCCC(=O)Nc2cnc(-c3ccc(C(F)(F)F)cc3)nc2C2CC2)cc1)C(=O)O [Example 16, 2-(4-{3-[4-Cyclopropyl-2-(4-trifluoromethyl-phenyl)-pyrimidin-5-ylcarbamoyl]-propyl}-phenoxy)-2-methyl-propionic acid]
